# Test results from US8652786B2, “Method for predicting responsiveness to drugs” (The General Hospital Corporation, priority 2005, dated 2014).
# Entries after “also recorded” stand apart in the source; their conditions may differ.
# Key:
# [1] = tested on: MET; conditions: Morotti et al. 2002; cited from earlier work
# [2] = tested on: MET; conditions: Morotti et al. 2002; cited from earlier work; remark: listed apart in the source
# [3] = tested on: GTL-16 gastric carcinoma cells; conditions: GTL-16 cells; cited from earlier work
# [4] = tested on: MET; test: Immunoblot of constitutive MET autophosphorylation in Amp+ cells; format: cell-based, human; conditions: 50 nM, 3 h
# [5] = tested on: gastric cancer cell line MKN45; test: Drug-sensitivity screen of 40 cancer cell lines, MKN45; format: cell-based, human; conditions: 3 days, DNA staining; MET-amplified line
# Procedure: (§1) Cells were cultured and analyzed in triplicate within microtiter plates. Cell numbers were quantitated by DNA staining, 3 days after addition of various concentrations of drugs and expressed as a fraction of matched untreated cultures. For each drug concentration, cell lines with relative drug sensitivity (<50% of untreated control growth) are shown in darkest staining, intermediate sensitivity (50-75%) in […], and drug insensitivity (>75%) in intermediate shading.
# (§2) Cellular Proliferation and Viability Assays. […] For quantitation of cellular proliferation, cells were fixed at appropriate time points in 4% paraformaldehyde, and all plates were stained simultaneously by using the fluorescent nucleic acid stain SYTO60 (Molecular Probes) at 1:8,000 dilution in PBS. Quantitation was done by measuring the […] at 700 nm by using the Odyssey Imaging System (LI-COR, Lincoln, Nebr.). The relative cell number was obtained by normalizing treated samples to matched untreated specimens. For quantitation of cell viability, cultures were stained after 4 days by using the MTT assay. Briefly, 10 μl of 5 mg/ml MTT (Thiazolyl blue) solution was added to each well and incubated for 2 h at 37° C. […] The results were quantitated spectrophotometrically by using a test wavelength of 570 nm and a reference wavelength of 630 nm.
# [6] = tested on: Amp− cells; test: MTT viability, gastric cancer cell lines without MET amplification; format: cell-based, human; conditions: 12 of 12 Amp− cell lines, 96 h
# [7] = tested on: Amp+ cells; test: MTT viability, gastric cancer cell lines with MET amplification; format: cell-based, human; conditions: 5 of 5 Amp+ cell lines, 96 h
# [8] = tested on: ERK1/2, AKT, STAT3, and FAK; test: Immunoblot of baseline phosphorylation of downstream effectors in Amp+ cells; format: cell-based, human; conditions: 50 nM, 3 h
# Procedure: (§3) FIG. 3: Constitutive activation of MET and activation of downstream signaling pathways in Amp^+ cells. (FIG. 3A) MET is constitutively activated in the Amp^+ cells. […] (FIG. 3B) Effect of HGF on MET activation in Amp^+ and Amp^− cells (representative immunoblots). Cells were serum-starved for 24 h and treated with 40 ng/ml HGF for 10 minutes. Phosphorylation of MET (Y1234/1235) is unaltered in Amp^+ cells treated with HGF, but it is induced by HGF in Amp^− cells (total MET control).
# (§4) Cells are costained with DAPI to show nuclei.
# (§5) Cells were either directly lysated in 2× sample buffer or in RIPA buffer (150 mM NaCl, 50 mM Tris pH 8.0, 1% NP40, 0.5% DOC, 0.1% SDS, 1 mM EDTA, 10 mM NaF, 1 mM Na-orthovanadate, 1× protease inhibitor cocktail (Roche; Indianapolis, Ind.)). Cell lysates were sonicated for 10 sec and cleared by centrifugation at 14,000 rpm for 10 min at 4° C. Cleared lysates were boiled in sample buffer and loaded onto 10% SDS-PAGE gel. For immunoblotting analysis, proteins were transferred onto Immobilon PVDF membrane (Millipore; Bedford, Mass.) and visualized with Western Lightning Plus chemiluminescence kit (Perkin Elmer; Boston, Mass.).
# [9] = tested on: Amp− cells; test: Growth curve (SYTO60), Amp− cells; format: cell-based, human; conditions: 1 μM, up to 6 days
# [10] = tested on: Amp+ cells; test: Apoptosis induction (cleaved caspase-3 staining, PARP cleavage), Amp+ cells; format: cell-based, human
# Procedure: as §4
# Cells were plated on coverslips in 12-well dishes and grown to approximately 75% confluency in 10% serum. […] After 72 h the cells were fixed with 4% paraformaldehyde for 20 minutes. Permeabilization with 1% NP40 for 5 minutes was followed by blocking with 3% BSA for 30 minutes. The coverslips were then incubated overnight at 4° C. with cleaved caspase-3 antibody at 1:200 dilution. The next day, the coverslips were washed 3 times with PBS and incubated with a secondary antibody (goat anti-rabbit FITC-conjugated) for 1 h at 1:250 dilution. Following 5 washes with PBS, coverslips were mounted in Vectashield mounting medium containing DAPI (Vector Laboratories; Burlingame, Calif.).
# Apoptosis Induction Assay. […] After 72 h, cells were fixed with 4% paraformaldehyde for 20 min, permeabilized by using 1% Nonidet P-40 for 5 min, and blocked with 3% BSA for 30 min. The coverslips were then incubated overnight at 4° C. with cleaved caspase-3 antibody at 1:200 dilution. The next day, the coverslips were washed three times with PBS and incubated with a secondary antibody (goat anti-rabbit FITC-conjugated) for 1 h at 1:250 dilution. After five washes with PBS, coverslips were mounted in Vectashield mounting medium containing DAPI (Vector Laboratories), and staining was visualized by fluorescent microscopy.
# [11] = tested on: ERK1/2, AKT, STAT3, or FAK; test: Immunoblot of baseline phosphorylation of downstream effectors in Amp− cells; format: cell-based, human; conditions: 3 h
# Procedure: as §3, §4, §5
# [12] = tested on: NCI-H1650; test: Drug-sensitivity screen of 40 cancer cell lines, NCI-H1650; format: cell-based, human; conditions: gefitinib 100 nM to 10 μM, 3 days, DNA staining; del E746-A750 EGFR
# Procedure: as §1, §2
# [13] = tested on: NCI-H1975 NSCLC cell line; test: Drug-sensitivity screen of 40 cancer cell lines, NCI-H1975; format: cell-based, human; conditions: gefitinib; L858R and T790M EGFR
# Procedure: as §1, §2
structure (smiles),measurement,setting,value
COC(=O)[C@@]1(O)C[C@H]2O[C@]1(C)n1c3ccccc3c3c4c(c5c6ccccc6n2c5c31)C(=O)NC4 [K252a],inhibition of Met mediated signals,[1],inhibit Met mediated signals at nanomolar concentrations
same,Met autophosphorylation,[2],inhibits Met autophosphorylation
same,Met-driven proliferation,[3],reduces Met-driven proliferation
"Cc1[nH]c(/C=C2\C(=O)Nc3ccc(S(=O)(=O)Cc4c(Cl)cccc4Cl)cc32)c(C)c1C(=O)N1CCC[C@@H]1CN1CCCC1 [PHA-665752, (3Z)-5-[(2,6-dichlorobenzyl)sulfonyl]-3-[(3,5-dimethyl-4-{[(2R)-2-(pyrrolidin-1-ylmethyl)pyrrolidin-1-yl]carbonyl}-1H-pyrrol-2-yl)methylene]-1,3-dihydro-2H-indol-2-one]",constitutive MET autophosphorylation,[4],effectively suppressed
same,Extreme sensitivity (concentration),[5],100 nM
same,effect on number of viable cells,[6],resistant; also recorded: no effect
same,effect on number of viable cells,[7],dramatic decrease in the number of viable cells; also recorded: dramatic reduction in cell numbers
same,"baseline phosphorylation of downstream effectors ERK1/2, AKT, STAT3, FAK",[8],effectively abrogated
same,effect on proliferation rate,[9],unaffected
same,induction of apoptosis,"[10]; Amp+ cells, cleaved caspase-3 (1 μM, 72 h), PARP cleavage (500 nM, 72 h)",apoptosis
same,course of cell death,[10]; MKN45 cells,more delayed but prolonged cell death
same,PARP-cleavage signal,"[10]; SNU-5 cells, 72 h",prominent PARP-cleavage signal
same,"baseline phosphorylation of ERK1/2, AKT, STAT3, FAK",[11],no effect
COc1cc2ncnc(Nc3ccc(F)c(Cl)c3)c2cc1OCCCN1CCOCC1 [gefitinib],Extreme sensitivity (concentration),[12],100 nM
same,sensitivity in the assay,[13],relatively resistant
